Read-outs that look alike come from different tables or passages of the source.

The experiment concerns HCV proteins in Rep5.1 cells (replicon cell line). As to the kind of experiment: Inhibitory activity of HCV: cell-based ELISA in replicon cell line Rep5.1 (decrease of HCV proteins). Further details: species or system hepatitis C virus. Particulars: Rep5.1 cells, 72 hours with drug. A digest of the protocol: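 Rep5.1 replicon cells (5000/well, DMEM-10 with 500 μg/ml G418) were given serially diluted drug 4 h after seeding. After 72 h, cells were fixed in methanol/acetone and HCV proteins detected by cell-based ELISA using replicon-specific patient plasma antibodies. IC50 is the concentration giving 50% protein decrease versus the no-drug control.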
In general terms: An ELISA detects its analyte on a solid surface through an enzyme-linked reagent.

Setting [1] is: Hepatitis C virus, 72 h, concentration at which 50% of HCV proteins was decreased, Table 2, read-out: IC50.
The mark [2] stands for this setting: Hepatitis C virus, 72 h, decrease of HCV proteins measured by HCV antibody, Table 1, read-out: Level (IC50 values classified).

`CC1=C(C(=O)OCc2cc3c(cc2[N+](=O)[O-])OCO3)CNC(=S)N1` [Compound 140, 6-methyl-2-thioxo-1,2,3,4-tetrahydro-pyrimidine-5-carboxylic acid 6-nitro-benzo[1,3]dioxol-5-ylmethyl ester]: the concentration for half-maximal inhibition (IC50) (as a rule, the point on the concentration scale where inhibition reaches its midpoint) runs as follows: under setting [1], 13 µM; under setting [2], 10 to 20 µM. Take `CCOc1ccccc1CCOC(=O)C1=C(C)NC(=S)NC1CO` (centres unmarked) [11″, 4-hydroxymethyl-6-methyl-2-thioxo-1,2,3,4-tetrahydro-pyrimidine-5-carboxylic acid 2-(2-ethoxy-phenyl)-ethyl ester]: the half-inhibitory concentration (IC50) by setting is: under setting [1], 6 µM; under setting [2], 1 to 10 µM. For `CC1=C(C(=O)OCCSc2nc3ccccc3o2)C(CF)NC(=S)N1` (centres unmarked) [46′, 4-fluoromethyl-6-methyl-2-thioxo-1,2,3,4-tetrahydro-pyrimidine-5-carboxylic acid 2-(benzoxazol-2-ylsulfanyl)-ethyl ester] the same measures were 6 µM and 1 to 10 µM. With `CC1=C(C(=O)OCCc2c(F)cc(F)cc2F)C(CO)NC(=S)N1` (centres unmarked) [53″, 4-hydroxymethyl-6-methyl-2-thioxo-1,2,3,4-tetrahydro-pyrimidine-5-carboxylic acid 2-(2,4,6-trifluoro-phenyl)-ethyl ester], the 50% inhibitory concentration (IC50) by setting is: under setting [1], 7 µM; under setting [2], 1 to 10 µM. Regarding `CC1=C(C(=O)OCc2ccc3nnn(C)c3c2)CNC(=S)N1` [Compound 242, 6-methyl-2-thioxo-1,2,3,4-tetrahydro-pyrimidine-5-carboxylic acid 3-methyl-3H-benzotriazol-5-ylmethyl ester], the IC50 was 63 µM under setting [1] and over 20 µM under setting [2]. Take `CC1=C(C(=O)OCCc2cccc(Cl)c2)C(COC(=O)OCCS(C)(=O)=O)NC(=S)N1` (centres unmarked) [84″, 4-(2-methanesulfonyl-ethoxycarbonyloxymethyl)-6-methyl-2-thioxo-1,2,3,4-tetrahydro-pyrimidine-5-carboxylic acid 2-(3-chloro-phenyl)-ethyl ester]: the IC50 was 0.9 µM under setting [1] and under 1 µM under setting [2]. Taken in the same sequence, the figures for `CC1=C(C(=O)OCCCCc2ccsc2)C(CO)NC(=S)N1` (centres unmarked) [25″, 4-hydroxymethyl-6-methyl-2-thioxo-1,2,3,4-tetrahydro-pyrimidine-5-carboxylic acid 4-thiophen-3-yl-butyl ester] were 2 µM and 1 to 10 µM. As for `COc1ccc(Cl)cc1COC(=O)C1=C(C)NC(=S)NC1` [Compound 132, 6-methyl-2-thioxo-1,2,3,4-tetrahydro-pyrimidine-5-carboxylic acid 5-chloro-2-methoxy-benzyl ester], the IC50 reads like this: under setting [1], 0.4 µM; under setting [2], under 1 µM. Take `CCCN(CC)c1ccc(CCOC(=O)C2=C(C)NC(=S)NC2CO)cc1[N+](=O)[O-]` (centres unmarked) [92″, 4-Hydroxymethyl-6-methyl-2-thioxo-1,2,3,4-tetrahydro-pyrimidine-5-carboxylic acid 2-[4-(ethyl-propylamino)-3-nitro-phenyl]-ethyl ester]: the concentration for half-maximal inhibition (IC50) by setting is: under setting [1], 0.4 µM; under setting [2], under 1 µM. Taken in the same sequence, the figures for `CC1=C(C(=O)OCCc2ccsc2)[C@H](CF)NC(=S)N1` [24′, (R)-4-fluoromethyl-6-methyl-2-thioxo-1,2,3,4-tetrahydro-pyrimidine-5-carboxylic acid 2-thiophen-3-yl-ethyl ester] were 4.4 µM and 1 to 10 µM. Consider `C#CCCCOC(=O)C1=C(C)NC(=S)NC1` [Compound 130, 6-methyl-2-thioxo-1,2,3,4-tetrahydro-pyrimidine-5-carboxylic acid pent-4-inyl ester], for which the concentration for half-maximal inhibition (IC50) (concentration at which 50% of HCV proteins was decreased, Table 2, read-out: IC50) turned out to be 35 µM.

With `COCC1NC(=S)NC(C)=C1C(=O)OCc1ccccc1` (centres unmarked) [Compound 109, 4-methoxymethyl-6-methyl-2-thioxo-1,2,3,4-tetrahydro-pyrimidine-5-carboxylic acid benzyl ester], the IC50 runs as follows: under setting [1], 100 µM; under setting [2], over 20 µM. As for `CC1=C(C(=O)OCCc2cc(F)cc(F)c2)C(CO)NC(=S)N1` (centres unmarked) [57″, 4-hydroxymethyl-6-methyl-2-thioxo-1,2,3,4-tetrahydro-pyrimidine-5-carboxylic acid 2-(3,5-difluoro-phenyl)-ethyl ester], the half-maximal inhibitory concentration (IC50) was 6.4 µM under setting [1] and 1 to 10 µM under setting [2].

On to `CC1=C(C(=O)OCCC[S+]([O-])c2nc3ccccc3o2)C(CF)NC(=S)N1` (centres unmarked) [49′, 4-fluoromethyl-6-methyl-2-thioxo-1,2,3,4-tetrahydro-pyrimidine-5-carboxylic acid 3-(benzoxazol-2-ylsulfinyl)-propyl ester], for which the 50% inhibitory concentration (IC50) reads like this: under setting [1], 8 µM; under setting [2], 1 to 10 µM. Consider `CC1=C(C(=O)OCc2ccc(-c3ccccc3)cc2)CNC(=S)N1` [Compound 22, 6-methyl-2-thioxo-1,2,3,4-tetrahydro-pyrimidine-5-carboxylic acid biphenyl-4-ylmethyl ester], for which the half-inhibitory concentration (IC50) by setting is: under setting [1], 0.4 µM; under setting [2], under 1 µM.

On to `CC1=C(C(=O)OCc2cccc(SC(F)(F)F)c2)C(CO)NC(=S)N1` (centres unmarked) [33″, 4-hydroxymethyl-6-methyl-2-thioxo-1,2,3,4-tetrahydro-pyrimidine-5-carboxylic acid 3-trifluoromethylsulfanyl-benzyl ester], for which the IC50 under setting [1] is under 0.4 µM and the IC50 under setting [2] is under 1 µM. For `CC1=C(C(=O)OCCCc2ccc(F)cc2)C(CF)NC(=S)N1` (centres unmarked) [56′, 4-fluoromethyl-6-methyl-2-thioxo-1,2,3,4-tetrahydro-pyrimidine-5-carboxylic acid 3-(4-fluorophenyl)-propyl ester] the same measures were 2.4 µM and 1 to 10 µM. Taken in the same sequence, the figures for `COc1ccc(COC(=O)C2=C(C)NC(=S)NC2)cc1Br` [Compound 141, 6-methyl-2-thioxo-1,2,3,4-tetrahydro-pyrimidine-5-carboxylic acid 3-bromo-4-methoxy-benzyl ester] were 0.7 µM and under 1 µM.
